Assays:
Experiment in all cases: KAM-matrix competition in K562 lysate;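 for 0.001 uM KAM: median log10 fold change of treatment over DMSO control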;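 for 0.01 uM KAM: median log10 fold change of treatment over DMSO control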;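 for 0.1 uM KAM: median log10 fold change of treatment over DMSO control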;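 for 1 uM KAM: median log10 fold change of treatment over DMSO control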;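 for 10 uM KAM: median log10 fold change of treatment over DMSO control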
Type in all cases: binding
TLK1 = target: T1, TLK1 (Homo sapiens, UniProt Q9UKI8);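 for 0.001 uM KAM: median log10 fold change of treatment over DMSO control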;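 for 0.01 uM KAM: median log10 fold change of treatment over DMSO control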;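 for 0.1 uM KAM: median log10 fold change of treatment over DMSO control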;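 for 1 uM KAM: median log10 fold change of treatment over DMSO control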;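 for 10 uM KAM: median log10 fold change of treatment over DMSO control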
T1 construct: endogenous in cells; host or cells: K562 cells (combined S0.8 and P0.8 lysate)
T1 sequence (Q9UKI8 1-766): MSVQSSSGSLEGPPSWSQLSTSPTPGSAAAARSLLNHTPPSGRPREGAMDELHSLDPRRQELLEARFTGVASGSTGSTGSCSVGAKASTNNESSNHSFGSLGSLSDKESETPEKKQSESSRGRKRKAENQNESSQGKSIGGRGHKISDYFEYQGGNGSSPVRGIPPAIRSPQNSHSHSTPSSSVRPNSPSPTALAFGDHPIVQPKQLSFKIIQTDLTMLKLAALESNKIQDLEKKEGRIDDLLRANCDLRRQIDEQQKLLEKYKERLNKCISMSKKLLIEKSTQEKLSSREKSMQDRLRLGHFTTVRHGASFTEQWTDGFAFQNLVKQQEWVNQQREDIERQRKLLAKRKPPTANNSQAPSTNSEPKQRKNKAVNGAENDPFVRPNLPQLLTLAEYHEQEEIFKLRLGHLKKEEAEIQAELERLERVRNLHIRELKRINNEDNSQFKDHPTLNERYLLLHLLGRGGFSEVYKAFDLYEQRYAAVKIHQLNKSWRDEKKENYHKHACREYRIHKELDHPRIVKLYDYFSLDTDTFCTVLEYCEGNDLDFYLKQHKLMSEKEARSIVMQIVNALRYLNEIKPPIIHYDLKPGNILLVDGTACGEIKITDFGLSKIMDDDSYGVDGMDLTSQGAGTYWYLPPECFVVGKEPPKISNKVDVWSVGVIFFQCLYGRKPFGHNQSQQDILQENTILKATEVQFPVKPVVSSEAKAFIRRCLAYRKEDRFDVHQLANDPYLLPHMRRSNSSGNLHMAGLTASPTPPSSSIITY
Description: (§1) Supplement 12953_2017_125_MOESM1_ESM.zip/MS_Supp Info.xlsx, sheet "KAM" | column: 10 uM KAM; 1 uM KAM; 0.1 uM KAM; 0.01 uM KAM; 0.001 uM KAM; RB50

BRD4 = target: T2, BRD4 (Homo sapiens, UniProt O60885);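 for 0.001 uM KAM: median log10 fold change of treatment over DMSO control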;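 for 0.01 uM KAM: median log10 fold change of treatment over DMSO control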;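 for 0.1 uM KAM: median log10 fold change of treatment over DMSO control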;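 for 1 uM KAM: median log10 fold change of treatment over DMSO control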;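 for 10 uM KAM: median log10 fold change of treatment over DMSO control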
T2 construct: endogenous in cells; host or cells: K562
Description: as §1

STK10 = target: T3, STK10 (Homo sapiens, UniProt O94804)
T3 construct: endogenous in cells; host or cells: K562 cell lysate
T3 sequence (O94804 whole entry): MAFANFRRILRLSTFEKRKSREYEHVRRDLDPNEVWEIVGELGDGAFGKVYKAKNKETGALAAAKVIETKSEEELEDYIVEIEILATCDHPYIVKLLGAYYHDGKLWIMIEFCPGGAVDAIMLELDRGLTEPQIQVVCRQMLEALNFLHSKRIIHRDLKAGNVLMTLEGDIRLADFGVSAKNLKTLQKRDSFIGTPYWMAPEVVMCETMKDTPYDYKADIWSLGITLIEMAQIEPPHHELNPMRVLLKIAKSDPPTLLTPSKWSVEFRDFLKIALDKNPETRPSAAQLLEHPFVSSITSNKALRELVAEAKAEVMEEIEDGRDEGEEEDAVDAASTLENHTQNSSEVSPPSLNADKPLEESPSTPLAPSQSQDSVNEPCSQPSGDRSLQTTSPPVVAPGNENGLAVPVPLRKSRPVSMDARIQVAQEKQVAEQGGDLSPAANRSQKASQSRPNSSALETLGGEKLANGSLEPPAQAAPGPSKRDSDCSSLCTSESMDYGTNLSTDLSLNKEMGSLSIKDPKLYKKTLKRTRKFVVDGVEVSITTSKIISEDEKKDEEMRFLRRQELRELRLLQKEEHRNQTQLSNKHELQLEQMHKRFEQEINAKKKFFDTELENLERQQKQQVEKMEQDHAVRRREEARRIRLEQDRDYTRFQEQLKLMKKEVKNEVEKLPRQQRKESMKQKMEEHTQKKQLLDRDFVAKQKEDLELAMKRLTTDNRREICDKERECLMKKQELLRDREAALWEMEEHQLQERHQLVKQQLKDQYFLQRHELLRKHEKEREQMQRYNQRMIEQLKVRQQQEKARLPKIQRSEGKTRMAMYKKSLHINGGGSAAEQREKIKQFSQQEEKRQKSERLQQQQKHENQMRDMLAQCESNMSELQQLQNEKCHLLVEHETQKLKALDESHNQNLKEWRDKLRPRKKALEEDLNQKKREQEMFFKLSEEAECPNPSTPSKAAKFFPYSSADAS
Description: as §1

BCR = target: T4, BCR (Homo sapiens, UniProt P00519+P11274)
T4 construct: ABL1 (fusion partner in BCR-ABL); endogenous in cells; host or cells: K562 lysate
Description: as §1

ABL2 = target: T5, ABL2 (Homo sapiens, UniProt P42684)
T5 construct: endogenous in cells; host or cells: K562
Description: as §1

MINK1 = target: T6, MINK1 (Homo sapiens, UniProt Q8N4C8)
T6 construct: endogenous in cells; host or cells: K562
T6 sequence (Q8N4C8 whole entry): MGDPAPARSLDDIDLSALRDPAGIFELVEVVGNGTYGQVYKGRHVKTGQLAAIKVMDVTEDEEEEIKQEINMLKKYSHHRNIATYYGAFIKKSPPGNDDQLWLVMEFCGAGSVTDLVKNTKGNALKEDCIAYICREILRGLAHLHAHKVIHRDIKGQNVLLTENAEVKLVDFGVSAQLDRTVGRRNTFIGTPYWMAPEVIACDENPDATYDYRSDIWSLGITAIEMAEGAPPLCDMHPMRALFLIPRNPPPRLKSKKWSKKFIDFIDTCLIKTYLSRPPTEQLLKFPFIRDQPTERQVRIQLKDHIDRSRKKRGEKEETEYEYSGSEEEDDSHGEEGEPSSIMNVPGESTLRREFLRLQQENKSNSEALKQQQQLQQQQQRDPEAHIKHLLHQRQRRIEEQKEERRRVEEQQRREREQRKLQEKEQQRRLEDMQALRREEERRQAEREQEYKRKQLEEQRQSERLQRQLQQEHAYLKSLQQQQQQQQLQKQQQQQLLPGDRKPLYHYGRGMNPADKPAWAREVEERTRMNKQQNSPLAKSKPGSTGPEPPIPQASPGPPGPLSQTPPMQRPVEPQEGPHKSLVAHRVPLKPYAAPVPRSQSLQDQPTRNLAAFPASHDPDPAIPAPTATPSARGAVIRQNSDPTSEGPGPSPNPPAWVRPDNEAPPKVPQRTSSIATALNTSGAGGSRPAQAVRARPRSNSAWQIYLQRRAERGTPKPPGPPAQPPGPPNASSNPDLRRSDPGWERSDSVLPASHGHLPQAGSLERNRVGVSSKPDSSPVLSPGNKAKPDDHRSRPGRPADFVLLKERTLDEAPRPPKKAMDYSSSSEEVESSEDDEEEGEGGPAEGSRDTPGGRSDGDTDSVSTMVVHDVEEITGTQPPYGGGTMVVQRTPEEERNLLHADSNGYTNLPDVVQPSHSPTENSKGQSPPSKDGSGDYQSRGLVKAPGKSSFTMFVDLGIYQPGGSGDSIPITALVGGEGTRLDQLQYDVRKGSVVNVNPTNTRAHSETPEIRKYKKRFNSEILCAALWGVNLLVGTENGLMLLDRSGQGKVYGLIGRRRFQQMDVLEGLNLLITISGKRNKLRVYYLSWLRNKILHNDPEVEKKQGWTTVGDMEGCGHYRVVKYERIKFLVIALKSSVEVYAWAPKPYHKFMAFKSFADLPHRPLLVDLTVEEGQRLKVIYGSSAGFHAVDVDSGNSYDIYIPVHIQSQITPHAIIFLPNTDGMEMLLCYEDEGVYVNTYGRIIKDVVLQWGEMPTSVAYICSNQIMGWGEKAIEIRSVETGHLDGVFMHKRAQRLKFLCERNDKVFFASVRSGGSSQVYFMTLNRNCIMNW
Description: as §1

CDK7 = target: T7, CDK7 (Homo sapiens, UniProt P50613)
T7 construct: endogenous in cells; host or cells: K562
T7 sequence (P50613 2-346 limits assumed): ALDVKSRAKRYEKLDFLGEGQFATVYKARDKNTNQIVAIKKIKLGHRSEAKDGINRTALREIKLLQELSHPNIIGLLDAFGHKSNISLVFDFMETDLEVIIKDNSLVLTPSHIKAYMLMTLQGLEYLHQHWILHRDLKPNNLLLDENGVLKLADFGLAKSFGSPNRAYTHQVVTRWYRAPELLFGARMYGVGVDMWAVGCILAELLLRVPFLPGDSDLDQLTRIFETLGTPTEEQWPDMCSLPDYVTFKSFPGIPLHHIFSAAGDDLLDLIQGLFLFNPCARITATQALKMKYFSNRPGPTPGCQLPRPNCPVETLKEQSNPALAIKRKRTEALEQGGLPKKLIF
T7 sequence (P51946 whole entry partner): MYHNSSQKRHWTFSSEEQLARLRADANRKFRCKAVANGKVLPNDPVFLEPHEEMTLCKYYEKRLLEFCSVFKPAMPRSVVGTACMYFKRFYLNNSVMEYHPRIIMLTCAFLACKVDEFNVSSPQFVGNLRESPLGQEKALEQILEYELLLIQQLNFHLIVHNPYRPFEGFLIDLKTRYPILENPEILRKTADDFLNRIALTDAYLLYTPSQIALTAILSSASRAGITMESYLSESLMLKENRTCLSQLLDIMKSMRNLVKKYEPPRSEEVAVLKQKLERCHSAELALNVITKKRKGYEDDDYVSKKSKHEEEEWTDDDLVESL
T7 sequence (P51948 whole entry partner): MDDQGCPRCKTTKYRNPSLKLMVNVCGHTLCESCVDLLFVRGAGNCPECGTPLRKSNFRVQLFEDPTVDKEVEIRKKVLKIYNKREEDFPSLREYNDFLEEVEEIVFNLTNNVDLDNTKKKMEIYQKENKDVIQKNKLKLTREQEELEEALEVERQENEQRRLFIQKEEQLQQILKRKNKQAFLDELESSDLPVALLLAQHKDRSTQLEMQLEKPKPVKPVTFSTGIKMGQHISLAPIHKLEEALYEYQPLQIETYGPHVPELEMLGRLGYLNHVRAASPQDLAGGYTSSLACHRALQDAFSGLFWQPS
Description: as §1

STK4 = target: T8, STK4 (Homo sapiens, UniProt Q13043)
T8 construct: endogenous in cells; host or cells: K562
T8 sequence (Q13043 1-487): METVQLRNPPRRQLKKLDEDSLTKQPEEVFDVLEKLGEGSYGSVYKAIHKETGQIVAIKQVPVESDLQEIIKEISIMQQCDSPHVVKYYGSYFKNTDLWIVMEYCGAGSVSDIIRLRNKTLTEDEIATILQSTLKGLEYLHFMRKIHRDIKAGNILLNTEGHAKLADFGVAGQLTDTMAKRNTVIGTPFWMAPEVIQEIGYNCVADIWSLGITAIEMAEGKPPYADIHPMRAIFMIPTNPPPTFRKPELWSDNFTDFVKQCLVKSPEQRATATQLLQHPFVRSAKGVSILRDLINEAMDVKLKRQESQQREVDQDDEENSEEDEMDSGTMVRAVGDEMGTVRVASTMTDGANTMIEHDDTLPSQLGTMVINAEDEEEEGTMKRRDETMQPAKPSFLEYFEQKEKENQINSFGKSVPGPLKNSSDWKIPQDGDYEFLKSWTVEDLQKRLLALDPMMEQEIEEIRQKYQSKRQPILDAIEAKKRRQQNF
Description: as §1

ZAK = target: T9, ZAK (Homo sapiens, UniProt Q9NYL2)
T9 construct: endogenous in cells; host or cells: K562 cell lysate
Description: as §1

SRPK1 = target: T10, SRPK1 (Homo sapiens, UniProt Q96SB4);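 for 0.001 uM KAM: median log10 fold change of treatment over DMSO control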;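 for 0.01 uM KAM: median log10 fold change of treatment over DMSO control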;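 for 0.1 uM KAM: median log10 fold change of treatment over DMSO control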;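 for 1 uM KAM: median log10 fold change of treatment over DMSO control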;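 for 10 uM KAM: median log10 fold change of treatment over DMSO control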
T10 construct: endogenous in cells; host or cells: K562
T10 sequence (Q96SB4 whole entry): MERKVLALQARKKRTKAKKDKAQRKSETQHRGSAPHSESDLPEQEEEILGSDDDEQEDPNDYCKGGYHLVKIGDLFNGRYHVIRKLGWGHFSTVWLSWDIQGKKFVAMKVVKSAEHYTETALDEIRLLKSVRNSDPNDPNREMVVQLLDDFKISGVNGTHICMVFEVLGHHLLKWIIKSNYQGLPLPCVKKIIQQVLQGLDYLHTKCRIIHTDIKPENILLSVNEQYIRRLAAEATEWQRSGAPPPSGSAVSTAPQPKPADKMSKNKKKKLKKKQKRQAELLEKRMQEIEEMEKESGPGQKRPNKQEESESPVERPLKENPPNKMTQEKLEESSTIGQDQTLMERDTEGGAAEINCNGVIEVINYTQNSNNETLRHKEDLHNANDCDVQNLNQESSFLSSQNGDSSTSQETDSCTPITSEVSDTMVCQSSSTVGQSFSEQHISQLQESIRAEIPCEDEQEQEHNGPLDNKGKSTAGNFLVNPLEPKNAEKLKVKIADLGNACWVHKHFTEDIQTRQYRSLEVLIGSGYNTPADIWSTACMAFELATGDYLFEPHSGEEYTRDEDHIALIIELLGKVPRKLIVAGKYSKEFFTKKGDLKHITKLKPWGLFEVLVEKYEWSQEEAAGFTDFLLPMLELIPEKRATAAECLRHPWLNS
Description: as §1

JAK2 = target: T11, JAK2 (Homo sapiens, UniProt O60674)
T11 construct: endogenous in cells; host or cells: K562
T11 sequence (O60674 whole entry): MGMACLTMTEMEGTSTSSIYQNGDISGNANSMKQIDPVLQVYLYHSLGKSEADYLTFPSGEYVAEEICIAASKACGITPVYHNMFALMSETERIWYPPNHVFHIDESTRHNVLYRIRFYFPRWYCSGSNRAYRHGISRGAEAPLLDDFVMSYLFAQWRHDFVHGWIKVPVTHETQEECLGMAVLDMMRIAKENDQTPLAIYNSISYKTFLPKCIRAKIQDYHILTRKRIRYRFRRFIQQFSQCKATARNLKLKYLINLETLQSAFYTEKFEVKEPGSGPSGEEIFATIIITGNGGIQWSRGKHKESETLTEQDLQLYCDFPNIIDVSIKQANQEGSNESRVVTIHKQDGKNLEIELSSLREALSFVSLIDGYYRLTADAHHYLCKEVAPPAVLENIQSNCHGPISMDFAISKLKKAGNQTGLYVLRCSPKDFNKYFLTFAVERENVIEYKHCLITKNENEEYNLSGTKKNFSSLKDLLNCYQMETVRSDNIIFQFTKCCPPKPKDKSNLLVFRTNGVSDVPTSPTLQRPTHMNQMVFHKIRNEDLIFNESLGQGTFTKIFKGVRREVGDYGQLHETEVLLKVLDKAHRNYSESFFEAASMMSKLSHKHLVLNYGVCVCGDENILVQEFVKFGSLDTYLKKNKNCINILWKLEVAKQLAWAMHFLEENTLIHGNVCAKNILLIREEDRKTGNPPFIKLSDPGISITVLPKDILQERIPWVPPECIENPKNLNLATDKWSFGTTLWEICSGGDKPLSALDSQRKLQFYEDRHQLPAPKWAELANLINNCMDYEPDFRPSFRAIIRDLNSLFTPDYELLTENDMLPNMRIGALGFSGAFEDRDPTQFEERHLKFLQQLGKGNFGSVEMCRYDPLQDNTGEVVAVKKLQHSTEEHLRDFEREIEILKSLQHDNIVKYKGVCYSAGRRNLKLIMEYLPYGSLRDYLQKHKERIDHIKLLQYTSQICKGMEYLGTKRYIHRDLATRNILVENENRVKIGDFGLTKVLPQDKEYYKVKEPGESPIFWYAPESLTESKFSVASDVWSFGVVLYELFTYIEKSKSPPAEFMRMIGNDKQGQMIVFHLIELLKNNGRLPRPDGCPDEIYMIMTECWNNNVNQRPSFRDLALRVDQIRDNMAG
Description: as §1

[1] = KAM 0.001-10 uM, read-out: RB50 (the source's name)
[2] = read-out: RB50 (the source's name)

Which results are given for `N#CCc1ccc(Nc2nc(NCCCN)cc(Nc3cc(C4CC4)[nH]n3)n2)cc1` [KAM]?
IC50 (TLK1; [1]): > 10000 nM; 0.001 uM KAM (TLK1; relative to 0 uM KAM = 0): -0.0133; 0.01 uM KAM (TLK1; relative to 0 uM KAM = 0): 0.001518; 0.1 uM KAM (TLK1; relative to 0 uM KAM = 0): -0.1562; 1 uM KAM (TLK1; relative to 0 uM KAM = 0): -0.3373; 10 uM KAM (TLK1; relative to 0 uM KAM = 0): -0.1561; IC50 (BRD4; [1]): > 10000 nM; 0.001 uM KAM (BRD4; relative to 0 uM KAM = 0): -0.02698; 0.01 uM KAM (BRD4; relative to 0 uM KAM = 0): 0.00122; 0.1 uM KAM (BRD4; relative to 0 uM KAM = 0): 0.04808; 1 uM KAM (BRD4; relative to 0 uM KAM = 0): 0.01224; 10 uM KAM (BRD4; relative to 0 uM KAM = 0): -0.001488; median Log10 fold change (STK10; 0.001 uM KAM): -0.02902; median Log10 fold change (STK10; 0.01 uM KAM): -0.03253; median Log10 fold change (STK10; 0.1 uM KAM): -0.2078; median Log10 fold change (STK10; 1 uM KAM): -0.4135; median Log10 fold change (STK10; 10 uM KAM): -0.5057; IC50 (STK10; [2]): 404 nM; median Log10 fold change (BCR; 0.001 uM KAM): -0.02555; median Log10 fold change (BCR; 0.01 uM KAM): -0.005343; median Log10 fold change (BCR; 0.1 uM KAM): -0.1851; median Log10 fold change (BCR; 1 uM KAM): -0.427; median Log10 fold change (BCR; 10 uM KAM): -0.5622; median Log10 fold change (ABL2; 0.001 uM KAM): -0.03166; median Log10 fold change (ABL2; 0.01 uM KAM): -0.02797; median Log10 fold change (ABL2; 0.1 uM KAM): -0.1724; median Log10 fold change (ABL2; 1 uM KAM): -0.2861; median Log10 fold change (ABL2; 10 uM KAM): -0.4205; IC50 (ABL2; [2]): 1220 nM; median Log10 fold change (MINK1; 0.001 uM KAM): -0.05922; median Log10 fold change (MINK1; 0.01 uM KAM): -0.00678; median Log10 fold change (MINK1; 0.1 uM KAM): -0.2189; median Log10 fold change (MINK1; 1 uM KAM): -0.4489; median Log10 fold change (MINK1; 10 uM KAM): -0.4879; IC50 (MINK1; [2]): 329 nM; median Log10 fold change (CDK7; 0.001 uM KAM): -0.0273; median Log10 fold change (CDK7; 0.01 uM KAM): -0.01722; median Log10 fold change (CDK7; 0.1 uM KAM): -0.1187; median Log10 fold change (CDK7; 1 uM KAM): -0.275; median Log10 fold change (CDK7; 10 uM KAM): -0.3928; IC50 (CDK7; [2]): 1660 nM; median Log10 fold change (STK4; 0.001 uM KAM): -0.002208; median Log10 fold change (STK4; 0.01 uM KAM): -0.01313; median Log10 fold change (STK4; 0.1 uM KAM): -0.2747; median Log10 fold change (STK4; 1 uM KAM): -0.6557; median Log10 fold change (STK4; 10 uM KAM): -0.6912; IC50 (STK4; [2]): 146 nM; median Log10 fold change (ZAK; 0.001 uM KAM): -0.0362; median Log10 fold change (ZAK; 0.01 uM KAM): -0.03172; median Log10 fold change (ZAK; 0.1 uM KAM): -0.2036; median Log10 fold change (ZAK; 1 uM KAM): -0.2767; median Log10 fold change (ZAK; 10 uM KAM): -0.5362; IC50 (ZAK; [2]): 990 nM; IC50 (SRPK1; [1]): > 10000 nM; 0.001 uM KAM (SRPK1; relative to 0 uM KAM = 0): -0.01052; 0.01 uM KAM (SRPK1; relative to 0 uM KAM = 0): -0.04054; 0.1 uM KAM (SRPK1; relative to 0 uM KAM = 0): 0.02779; 1 uM KAM (SRPK1; relative to 0 uM KAM = 0): -0.002878; 10 uM KAM (SRPK1; relative to 0 uM KAM = 0): -0.01305; median Log10 fold change (JAK2; 0.001 uM KAM): -0.002638; median Log10 fold change (JAK2; 0.01 uM KAM): -0.00181; median Log10 fold change (JAK2; 0.1 uM KAM): -0.159; median Log10 fold change (JAK2; 1 uM KAM): -0.3349; median Log10 fold change (JAK2; 10 uM KAM): -0.4311; IC50 (JAK2; [2]): 909 nM

Source: publication PMC5513037, “Examining the influence of specificity ligands and ATP-competitive ligands on the overall effectiveness of bivalent kinase inhibitors” (Proteome Science, 2017)
